Assay results taken from US8865448B2, “Aspergillus containing beta-glucosidase, beta-glucosidases and nucleic acids encoding the same” (Cleanvantage LLC, priority 2010, dated 2014).

Assays:
[1] = test system: A. niger NIAB280 beta-glucosidase; conditions: hydrolysis of cellobiose, 50° C., pH 5.0; cited from earlier work
[2] = biological target: T1, Aspergillus saccharolyticus CBS 127449 beta-glucosidase BGL1, his-tagged, expressed in T. reesei, SEQ ID NO: 3 (without signal peptide SEQ ID NO: 4) (Aspergillus saccharolyticus, UniProt G0X2F9); assay: Michaelis-Menten kinetics with cellobiose, purified BGL1; type: biochemical; conditions: cellobiose as substrate, 50° C., pH 4.8, Hanes plot
T1 construct: mature form lacks signal peptide 1-19
T1 sequence (G0X2F9 20-860): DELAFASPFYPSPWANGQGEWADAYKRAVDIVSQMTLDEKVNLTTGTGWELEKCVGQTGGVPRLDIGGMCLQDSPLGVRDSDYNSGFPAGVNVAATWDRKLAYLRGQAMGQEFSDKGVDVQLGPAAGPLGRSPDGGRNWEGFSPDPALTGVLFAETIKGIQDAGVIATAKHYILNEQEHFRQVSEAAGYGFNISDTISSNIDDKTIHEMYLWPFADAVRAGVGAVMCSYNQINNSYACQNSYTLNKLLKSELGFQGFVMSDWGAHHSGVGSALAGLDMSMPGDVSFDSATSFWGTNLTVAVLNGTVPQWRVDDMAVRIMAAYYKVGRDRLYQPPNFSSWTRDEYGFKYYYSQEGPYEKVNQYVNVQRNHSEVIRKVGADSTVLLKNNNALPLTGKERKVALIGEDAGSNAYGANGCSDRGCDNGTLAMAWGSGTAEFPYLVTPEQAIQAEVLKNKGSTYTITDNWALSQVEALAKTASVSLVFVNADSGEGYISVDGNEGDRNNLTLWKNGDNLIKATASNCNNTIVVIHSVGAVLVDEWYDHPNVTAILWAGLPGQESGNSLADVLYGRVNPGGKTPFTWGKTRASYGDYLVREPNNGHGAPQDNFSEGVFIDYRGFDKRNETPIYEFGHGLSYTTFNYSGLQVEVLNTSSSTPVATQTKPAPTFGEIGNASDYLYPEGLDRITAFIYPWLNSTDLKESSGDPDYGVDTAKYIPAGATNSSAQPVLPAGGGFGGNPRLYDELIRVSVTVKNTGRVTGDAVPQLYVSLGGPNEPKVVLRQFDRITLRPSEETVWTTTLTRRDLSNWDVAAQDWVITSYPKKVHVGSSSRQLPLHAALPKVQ
Method: In this work specific activity (U/mg) is defined as units per amount of total protein. […] The assay using 5 mM pNPG in NaCltrate buffer pH 4.8 was performed as previously described; enzyme samples were assayed at different concentrations in triple determination to ensure substrate saturation in the assay. […] Samples were assayed at different concentrations in triple determination to ensure substrate saturation in the assay.

[3] = test system: Cellic CTec beta-glucosidases, commercial preparation; assay: Michaelis-Menten kinetics with cellobiose, Cellic CTec; type: biochemical; conditions: cellobiose as substrate, 50° C.
Method: (§1) In this work specific activity (U/mg) is defined as units per amount of total protein. […] The assay using 5 mM pNPG in NaCltrate buffer pH 4.8 was performed as previously described; enzyme samples were assayed at different concentrations in triple determination to ensure substrate saturation in the assay. […] The glucose concentration was measured at Dionex ICS3000 using gradient elution: 0-20% eluent B (0.5M NaAcetate in 100 mM NaOH) in 13 min followed by 2 min washing with 50% eluent B and 5 min re-equilibrating with 100% eluent A (100 mM NaOH). Samples were assayed at different concentrations in triple determination to ensure substrate saturation in the assay.
(§2) Triple determinations were performed. A substrate saturation curve was prepared by plotting substrate concentration [S] vs reaction rate, v. The Michealis Menten constants Km and Vmax were determined from Hanes-Wolf plots where substrate concentration [S] is plotted against substrate concentration over reaction rate [S]/v, and the linear relationship of the data gives a slope of 1/Vmax, a y-intercept of Km/Vmax, and an x-intercept of −Km.
(§3) Enzyme kinetics are preferably carried out on pure enzyme preparations, but are in this study used for the comparison of the beta-glucosidases of the crude enzyme extract of strain AP/Aspergillus saccharolyticus and the commercial enzyme preparation Novozym 188 and Cellic CTec. […]

[4] = test system: Novozym 188 beta-glucosidase (Aspergillus niger), commercial preparation; assay: Michaelis-Menten kinetics with cellobiose, Novozym 188; type: biochemical; conditions: cellobiose as substrate, 50° C.
Method: as §1, §2, §3

[5] = test system: A. niger BKMF-1305 beta-glucosidase; conditions: cited from earlier work
[6] = test system: A. japonicus beta-glucosidase; conditions: cellobiose; cited from earlier work
[7] = test system: A. niger beta-glucosidases; conditions: cellobiose; general literature search; cited from earlier work
[8] = test system: A. phoenicis QM329 beta-glucosidase; conditions: cited from earlier work
[9] = test system: Aspergillus saccharolyticus (strain AP, CBS 127449) beta-glucosidases, crude enzyme extract; assay: Michaelis-Menten kinetics with cellobiose, crude solid state fermentation extract of strain AP; type: biochemical; conditions: cellobiose as substrate, 50° C.
Method: The fungal strain AP/Aspergillus saccharolyticus was grown on potato dextrose agar (Sigma) for sporulation. Spores were harvested after 7 days of growth by adding sterile water to the plate and scrape on the surface of the culture. The heavy spore suspension was filtered through Myra cloth. Two ml of the spore solution was inoculated into 200 ml seed medium (2.0 g/l wheat bran, 5 g/l corn steep powder, 0.25 g/l yeast extract, 0.75 g/l peptone, 1.4 g/l (NH4)2SO4, 2.0 g/l KH2PO4, 0.4 g/l CaCl2 2H2O, 0.3 g/l MgSO4H2O, 5.0 mg/l FeSO4, 1.6 mg/l MnSO4 7H2O, 1.4 mg/l ZnSO4 7H2O, 2.0 CoCl2 6H2O) in an 500 ml Erlenmeyer flask, and incubated at 30° C. for 2 days, shaking at 160 rpm. […] The samples were incubated at 30° C. without shaking. After 7 days incubation, liquid was extracted from the medium by pressing the medium by hand using gloves. The extract was centrifuged at 10000 g, and the supernatant filtered through Whatman filter paper. In this work specific activity (U/mg) is defined as units per amount of total protein. […] Samples were assayed at different concentrations in triple determination to ensure substrate saturation in the assay. […] Triple determinations were performed. A substrate saturation curve was prepared by plotting substrate concentration [S] vs reaction rate, v. […]

[10] = test system: A. carbonarius KLU-93 beta-glucosidase; conditions: cited from earlier work
[11] = test system: A. niger CCRC31494 beta-glucosidase; conditions: hydrolysis of cellobiose, 40° C., pH 4.0; cited from earlier work
[12] = cellobiose, jointly for A. phoenicis, A. niger, A. carbonarius (Jager et al., 2001)
[13] = hydrolysis of cellobiose, 50° C., pH 4.0

In the case of `OC[C@H]1O[C@@H](O[C@H]2[C@H](O)[C@@H](O)C(O)O[C@@H]2CO)[C@H](O)[C@@H](O)[C@@H]1O` (some centres unmarked) [cellobiose], the Vmax [1] is given as 36.5 U/mg, the Vmax [2] is given as 45 U/mg and the Km ([3]; pH 4.8, Hanes-Wolf plot) is given as 1690 µM. For the same compound, the Vmax ([3]; pH 4.8, per total protein) was 22.9 U/mg, the Km ([4]; pH 4.8, Hanes-Wolf plot) was 1060 µM and the Vmax ([4]; pH 4.8, per total protein) was 7.5 U/mg. The Km [5, 12] was 2000 to 3000 µM, the Vmax [5, 13] was 38.8 U/mg and the Km [6] was 1000 µM. For the same compound, the Km [7] was 1500 to 5600 µM, the Km [8, 12] was 2000 to 3000 µM and the Vmax [8, 13] was 27.3 U/mg. For the same compound, the Km ([9]; pH 4.8, Hanes-Wolf plot) was 1090 µM, the Vmax ([9]; pH 4.8, per total protein) was 11.3 U/mg and the Km [10, 12] was 2000 to 3000 µM. The Vmax [10, 13] was 15.4 U/mg and the Vmax [11] was 5.27 U/mg.
